Patent publication US5227490A, “Fibrinogen receptor antagonists” (Merck & Co., Inc., priority 1992, dated 1993)

Key:
human platelets = experiment: ADP-stimulated platelet aggregation assay (gel-filtered human platelets); type: cell-based; conditions: fibrinogen, CaCl2 1 mM, ADP-initiated, initial rate of increase of light transmittance, read-out: IC50 (inhibition of platelet aggregation)
Description: In addition to the following preparative procedures, several examples of in-vitro bioactivity of compounds within the scope of the present invention are indicated. To illustrate, one test which is used to evaluate fibrinogen receptor antagonist activity is based on evaluation of inhibition of ADP-stimulated platelets. Aggregation requires that fibrinogen bind to and occupy the platelet fibrinogen receptor site. Inhibitors of fibrinogen binding inhibit aggregation. In the ADP-stimulated platelet aggregation assay used to determine inhibition associated with the compounds claimed in the instant invention, human platelets are isolated from fresh blood, collected into acid citrate/dextrose by differential centrifugation followed by gel filtration on Sepharose 2 B in divalent ion-free Tyrode's buffer (pH 7.4) containing 2% bovine serum albumin.
Platelet aggregation is measured at 37° C. in a Chronolog aggregometer. The reaction mixture contains gel-filtered human platelets (2×10^8 per ml), fibrinogen (100 micrograms per ml (ug/ml)), Ca^2+ (1 mM), and the compound to be tested. The aggregation is initiated by adding 10 μM ADP 1 minute after the other components are added. The reaction is then allowed to proceed for at least 2 minutes. The extent of inhibition of aggregation is expressed as the percentage of the rate of aggregation observed in the absence of inhibitor. The IC50 is the dose of a particular compound inhibiting aggregation by 50% relative to a control lacking the compound.
The test procedures employed to measure the anti-platelet aggregating activity of the compounds of the present invention are described below.
Blood was drawn into 0.1 volumes of acid citrate-dextrose (85 mM sodium citrate, 64 mM citric acid, 110 mM dextrose) by venipuncture from normal human volunteers. Platelet-rich plasma was prepared by centrifugation at 400× g for 12 minutes. PGEl (5 mg/ml) was added and platelets were collected by centrifugation at 800× g for 12 minutes. The platelet pellet was resuspended into human platelet buffer (140 mM NaCl, 7.9 mM KCl, 3.3 mM Na2 HPO4, 6 mM HEPES, 2% bovine serum albumin, 0.1% dextrose, pH 7.2) and filtered over Sepharose 2B that was previously equilibrated in human platelet buffer. Human fibrinogen ([…]) and Ca Cl2 (1 mM) were added and aggregation was initiated by the addition of […]. Aggregation was monitored by the initial rate of increase of light transmittance.

gpIIb/IIIa complex = conditions: snake venom polypeptides; cited from earlier work
[1] = test system: fibronectin and vitronectin; conditions: cited from earlier work

Row | IC50 (human platelets) [µM] | Molecule | further results
1 | 3.1 | O=C(NCC(Cc1ccc(OCCCCC2CCNCC2)cc1)C(=O)O)c1ccccc1 (centres unmarked) [CH2 NHC(O)Ph, 2-[4-(4-Piperidin-4-yl)butyloxy]phenylmethyl-3-(benzoylamino)propanoic acid] | –
2 | 18 | O=C(O)C(CNCc1ccccc1)Cc1ccc(OCCCCC2CCNCC2)cc1 (centres unmarked) [CH2 NHCH2 Ph, 2-[4-(4-Piperidin-4-yl)butyloxy]phenylmethyl-3-(benzylamino)propanoic acid] | –
3 | 2.9 | CCCCS(=O)(=O)NCC(Cc1ccc(OCCCCC2CCNCC2)cc1)C(=O)O (centres unmarked) [CH2 NHSO2 C4 H9, 2-[4-(4-Piperindin-4-yl)butyloxy]phenylmethyl-3-(n-butylsulfonylamino)propanoic acid] | –
4 | 115 | O=C(O)C(Cc1ccccc1)Cc1ccc(OCCCCC2CCNCC2)cc1 (centres unmarked) [CH2 Ph, 3-[4-(4-Piperidin-4-yl)butyloxyphenyl]-2-(benzyl)propanoic acid] | –
5 | 0.65 | CCCCS(=O)(=O)CC(Cc1ccc(OCCCCC2CCNCC2)cc1)C(=O)O (centres unmarked) [CH2 SO2 C4 H9, 2-[4-(4-Piperidin-4-yl)butyloxy]phenylmethyl-3-(n-butylsulfonyl)propanoic acid] | –
6 | 1.6 | O=C(O)C(Cc1ccc(OCCCCC2CCNCC2)cc1)CS(=O)(=O)Cc1ccccc1 (centres unmarked) [CH2 SO2 CH2 Ph, 2-[4-(4-N-piperidin-4-ylbutyloxy]phenylmethyl]-3-(benzylsulfonyl)propanoic acid] | –
7 | 5.8 | COC(=O)C(Cc1ccc(OCCCCC2CCNCC2)cc1)C(=O)O (centres unmarked) [CO2 CH3, 2-(Carbomethoxy)-3-[4-(4-piperidin-4-yl)butyloxyphenyl]propanoic acid] | –
8 | 3.2 | O=C(O)C(Cc1ccc(OCCCCC2CCNCC2)cc1)C(=O)O [CO2 H, 2-Carboxy-3-[4-(4-Piperidin-4-yl)butyloxyphenyl]propanoic acid] | –
9 | 8.6 | O=C(O)C(O)Cc1ccc(OCCCCC2CCNCC2)cc1 (centres unmarked) [OH, 2-Hydroxy-3-[4-(4-piperidin-4-yl)butyloxyphenyl]propanoic acid] | –
10 | – | Echistatin | affinity for the gpIIb/IIIa complex (gpIIb/IIIa complex): high affinity
11 | – | arginine-glycine-aspartic acid [Arg-Gly-Asp] | activity of the tri-peptide [1]: low activity
